Common to all, as to assay type: cell-based
Experiment [1] addresses T1, PLK1 (Homo sapiens, UniProt P53350).
T1 construct: endogenous in cells; host or cells: HeLa LgBit (Plk1-HiBit KI): HeLa stably expressing LgBit, with a CRISPR/Cas9 knock-in of HiBit at the endogenous PLK1 locus
As to the kind of experiment: Luciferase assay for PLK1 in HeLa LgBit (Plk1-HiBit KI) cell line. The following applies: 300 nM compound, luminescence after 9 hours. As for the experimental part: 2. Luciferase Assay for PLK1
(1) Preparation and Culture of HeLa LgBit (Plk1-HiBit KI) Cell Line
A HeLa cell line in which the LgBit vector was transfected and expressed stably was prepared. Then, after constructing gRNA and donor to express the HiBit amino acid sequence behind the C-terminal of the PLK1 gene, which was inherent in the cell, it was inserted into the cell together with a vector capable of expressing CRISPR/Cas9. Only the cells in which the insertion was completed and knock-in had progressed were selected, sub-cultured and used.
For cell culture, DMEM (Gibco), FBS (Gibco), PS (Gibco), […] cell culture dish (SPL), […] cell culture dish (SPL), 96-well culture plate (SPL), PBS pH 7.4 (Gibco), TrypLE™ Express (Gibco), Cell counter (Thermo Fisher Scientific) and 0.4% Trypan Blue Solution (DYNEBIO) were used.
(2) Treatment of Compounds of the Present Invention and Method of Luciferase Assay
In the case of HeLa LgBit (Plk1-HiBit KI), the compounds were treated after being released after thymidine block, and the process was as follows. Thymidine (Sigma-Aldrich) was completely dissolved in ddH2O and used in the experiment. For thymidine block, the products were treated with 2 mM of thymidine and then incubated for 24 hours. For release and chemical treatment, the medium was suctioned and washed with 1×PBS. TrypLE™ (Gibco) was added and incubated in 37° C. CO2 incubator (Thermo Fisher Scientific) for 5 mins. Cells neutralized by adding complete media were counted through a counter. For each well of a 96-well culture plate (SPL), 3.3×10^4 cells and a total medium volume of 150 μl were seeded and incubated in a CO2 incubator.
Each cell line was incubated in a CO2 incubator for 18 hours, and Endurazine (Promega, Cat. No. N257B) was added to each well to make up 4% of the total volume. After adding compounds of Examples in a 96-well white plate (SPL) to a concentration of 300 nM, the wavelength of the plate reader (BMG Labtech, CLARIOstar Plus) was set to 470-480 nm, and then the luminescence was tracked in real time.
In Table 2, Activity represents the ratio of the luminescence value of each Exemplary Compound treatment group to DMSO treatment group (+++: <0.3, ++: <0.5, +: <0.7).
On the technique in general: The HiBiT peptide binds its large partner to form an active luciferase.

Experiment [2] deals with NCI-H526 cell line. As to the kind of experiment: Cell viability assay for NCI-H526 cell line (EZ-Cytox). The following applies: Homo sapiens, NCI-H526, 120 h; H526 cells, 5 days, 3000 nM to 0.46 nM. As for the experimental part: (§1) 3. Cell Viability Assay for NCI-H69, NCI-H526 Cell Lines
(§2) (1) Culture of NCI-H69, NCI-H526 Cell Lines
(§3) The NCI-H69 (hereafter H69) and NCI-H526 (hereafter H526) cell lines were purchased from KCLB.
(§4) (2) Treatment of Compounds of the Present Invention and Method of Cell Viability Assay
(§5) After treating the compound to each well to make the total volume of 200 μl, it was cultured in a CO2 incubator (Thermo Fisher Scientific) for 5 days. […] The absorbance of the completely cultured sample was measured by setting the wavelength of a plate reader (BMG Labtech) to […], and was measured after shaking for 3 minutes in a plate reader before measurement.
(§6) The results of cell viability for H526 and H69 cell line are shown in Table 3 and Table 4, respectively.
(§7) In Table 3 and Table 4, Activity represents IC50 value of each Exemplary Compound treatment group to H526 and H69 cell line, respectively (A: <30 nM, B: <50 nM, C: <100 nM, D: <200 nM, E: <400 nM).

In experiment [3] the test system is NCI-H69 cell line. As to the kind of experiment: Cell viability assay for NCI-H69 cell line (EZ-Cytox). The following applies: Homo sapiens, NCI-H69, 120 h; H69 cells, 5 days, 3000 nM to 0.46 nM. As for the experimental part:
as §1, §2, §3, §4, §5, §6, §7

Experiment [4] concerns MRC-5 cell line. Kind of experiment: Cell viability assay for MRC-5 cell line (EZ-Cytox). To be noted: Homo sapiens, MRC5, 120 h; MRC-5 normal cell line, 5 days, 10000 nM to 1.52 nM; read-out: Activity: IC50 value, cell viability, MRC-5 cell line (Exemplary Compounds). How it is done: 4. Cell Viability Assay for MRC-5 Cell Line
(1) Culture of MRC-5 Cell Line
The MRC-5 cell line was purchased from KCLB. Passage of cultured cells was maintained within P15.
(2) Treatment of Compounds of the Present Invention
Then, it was cultured in 37° C. CO2 incubator (Thermo Fisher Scientific) for 5 days.
(3) Cytotoxicity Experiment
CO2 incubator for 4 hours.

T1 sequence (P53350 whole entry): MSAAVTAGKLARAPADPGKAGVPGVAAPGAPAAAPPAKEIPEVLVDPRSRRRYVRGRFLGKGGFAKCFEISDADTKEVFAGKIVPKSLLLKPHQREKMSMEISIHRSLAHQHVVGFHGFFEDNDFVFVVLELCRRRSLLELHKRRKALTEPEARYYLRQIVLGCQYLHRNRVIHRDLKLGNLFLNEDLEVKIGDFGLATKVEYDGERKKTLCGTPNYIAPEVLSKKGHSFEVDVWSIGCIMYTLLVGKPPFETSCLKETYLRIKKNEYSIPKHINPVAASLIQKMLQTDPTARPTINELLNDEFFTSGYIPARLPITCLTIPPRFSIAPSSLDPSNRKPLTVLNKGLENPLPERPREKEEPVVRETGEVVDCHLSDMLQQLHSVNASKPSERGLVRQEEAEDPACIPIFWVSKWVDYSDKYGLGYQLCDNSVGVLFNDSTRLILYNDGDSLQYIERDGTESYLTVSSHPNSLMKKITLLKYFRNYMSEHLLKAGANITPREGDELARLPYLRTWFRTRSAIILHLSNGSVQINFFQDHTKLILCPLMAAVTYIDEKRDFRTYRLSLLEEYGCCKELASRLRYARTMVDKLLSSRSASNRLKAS

As a reminder, the IC50 is the concentration needed to halve the response being measured. On to `COc1cc(C(=O)NN2CCC(CCN3CCN(c4cc(OC)c(NC5CCC(=O)NC5=O)cc4F)CC3)CC2)c(F)cc1Nc1ncc2c(n1)N(C(C)C)CC(F)(F)C(=O)N2C` (stereo not drawn) [Compound 43, 4-((7,7-difluoro-9-isopropyl-5-methyl-6-oxo-6,7,8,9-tetrahydro-5H-pyrimido[4,5-b][1,4]diazepin-2-yl)amino)-N-(4-(2-(4-(4-((2,6-dioxopiperidin-3-yl)amino)-2-fluoro-5-methoxyphenyl)piperazin-1-yl)ethyl)piperidin-1-yl)-2-fluoro-5-methoxybenzamide], for which, in experiment [1], the “Activity: ratio of the luminescence value of compound treatment group to DMSO treatment group” value (“Activity: ratio” below) was “++ (++: <0.5)”. Also, the figures for the IC50 in experiment [2], in experiment [3] and in experiment [4] were less than 30 nM, less than 30 nM and more than 10000 nM, respectively.
Turning to `COc1cc(C(=O)NN2CCC(CCN3CCN(c4cc(OC)c(NC5CCC(=O)NC5=O)cc4F)CC3)CC2)ccc1Nc1ncc2c(n1)N(C(C)C)CC(F)(F)C(=O)N2C` (stereo not drawn) [Compound 39, 4-((7,7-difluoro-9-isopropyl-5-methyl-6-oxo-6,7,8,9-tetrahydro-5H-pyrimido[4,5-b][1,4]diazepin-2-yl)amino)-N-(4-(2-(4-(4-((2,6-dioxopiperidin-3-yl)amino)-2-fluoro-5-methoxyphenyl)piperazin-1-yl)ethyl)piperidin-1-yl)-3-methoxybenzamide], the “Activity: ratio” value in experiment [1] was “++ (++: <0.5)”. The IC50 in experiment [2] is less than 30 nM; in experiment [3], less than 30 nM; in experiment [4], more than 10000 nM.
For the molecule `COc1cc(C(=O)NC2CCC(N(C)CC3CCN(c4ccc(C5CCC(=O)NC5=O)nc4)CC3)CC2)ccc1Nc1ncc2c(n1)N(C(C)C)CC(F)(F)C(=O)N2C` (stereo not drawn) [Compound 11, 4-((7,7-difluoro-9-isopropyl-5-methyl-6-oxo-6,7,8,9-tetrahydro-5H-pyrimido[4,5-b][1,4]diazepin-2-yl)amino)-N-((1r,4r)-4-(((1-(6-(2,6-dioxopiperidin-3-yl)pyridin-3-yl)piperidin-4-yl)methyl)(methyl)amino)cyclohexyl)-3-methoxybenzamide], the “Activity: ratio” value in experiment [1] is recorded as “++ (++: <0.5)”. For the same molecule, the IC50 in experiment [2] was less than 30 nM; in experiment [3], less than 30 nM; in experiment [4] it was more than 10000 nM.
As to `COc1cc(C(=O)N[C@H]2C3CN(CC4CCN(c5ccc(NC6CCC(=O)NC6=O)cc5)CC4)C[C@@H]32)ccc1Nc1ncc2c(n1)N(C(C)C)CC(F)(F)C(=O)N2C` (stereo partly drawn) [Compound 22, 4-((7,7-difluoro-9-isopropyl-5-methyl-6-oxo-6,7,8,9-tetrahydro-5H-pyrimido[4,5-b][1,4]diazepin-2-yl)amino)-N-((1R,5S,6s)-3-((1-(4-((2,6-dioxopiperidin-3-yl)amino)phenyl)piperidin-4-yl)methyl)-3-azabicyclo[3.1.0]hexan-6-yl)-3-methoxybenzamide], the “Activity: ratio” value in experiment [1] is recorded as “+++ (+++: <0.3)”. Also, the IC50 in experiment [2] is less than 50 nM; in experiment [3], less than 50 nM; in experiment [4], more than 10000 nM.
For `COc1cc(C(=O)NC2CC3(CCN(CC4CCN(c5cnc(C6CCC(=O)NC6=O)cc5C)CC4)CC3)C2)ccc1Nc1ncc2c(n1)N(C(C)C)CC(F)(F)C(=O)N2C` (stereo not drawn) [Compound 19, 4-((7,7-difluoro-9-isopropyl-5-methyl-6-oxo-6,7,8,9-tetrahydro-5H-pyrimido[4,5-b][1,4]diazepin-2-yl)amino)-N-(7-((1-(6-(2,6-dioxopiperidin-3-yl)-4-methylpyridin-3-yl)piperidin-4-yl)methyl)-7-azaspiro[3.5]nonan-2-yl)-3-methoxybenzamide], the “Activity: ratio” value in experiment [1] was “++ (++: <0.5)”. For the same molecule, the results for the IC50 in experiment [2], in experiment [3] and in experiment [4] were less than 30 nM, less than 30 nM and more than 10000 nM, respectively.
For `COc1cc(C(=O)NC2CCN(CCN3CCN(c4cc(OC)c(NC5CCC(=O)NC5=O)cc4F)CC3)CC2)ccc1Nc1ncc2c(n1)N(C1CCCC1)CC(F)(F)C(=O)N2C` (stereo not drawn) [Compound 48, 4-((9-cyclopentyl-7,7-difluoro-5-methyl-6-oxo-6,7,8,9-tetrahydro-5H-pyrimido[4,5-b][1,4]diazepin-2-yl)amino)-N-(1-(2-(4-(4-((2,6-dioxopiperidin-3-yl)amino)-2-fluoro-5-methoxyphenyl)piperazin-1-yl)ethyl)piperidin-4-yl)-3-methoxybenzamide], in experiment [1], the “Activity: ratio” value is given as “++ (++: <0.5)”. Moreover, the IC50 in experiment [2] is less than 30 nM; in experiment [3], less than 50 nM; in experiment [4] it was more than 10000 nM.
Taken in the same sequence, the figures for `COc1cc(N2CCN(CCC3CCN(NC(=O)c4cc(F)c(Nc5ncc6c(n5)N(C(C)C)CC(F)(F)C(=O)N6C)cc4OC)CC3)CC2)c(F)cc1NC1CCC(=O)NC1=O` (stereo not drawn) [Compound 45, 4-((7,7-difluoro-9-isopropyl-5-methyl-6-oxo-6,7,8,9-tetrahydro-5H-pyrimido[4,5-b][1,4]diazepin-2-yl)amino)-N-(4-(2-(4-(4-((2,6-dioxopiperidin-3-yl)amino)-2-fluoro-5-methoxyphenyl)piperazin-1-yl)ethyl)piperidin-1-yl)-5-fluoro-2-methoxybenzamide] were “++ (++: <0.5)”, less than 200 nM, less than 200 nM and more than 10000 nM.
Taken in the same sequence, the figures for `CCN1CC(F)(F)C(=O)N(C)c2cnc(Nc3cc(F)c(C(=O)NN4CCC(CCN5CCN(c6ccc(NC7CCC(=O)NC7=O)c(F)c6)CC5)CC4)cc3OC)nc21` (stereo not drawn) [Compound 35, N(4-(2-(4-(4-((2,6-dioxopiperidin-3-yl)amino)-3-fluorophenyl)piperazin-1-yl)ethyl)piperidin-1-yl)-4-((9-ethyl-7,7-difluoro-5-methyl-6-oxo-6,7,8,9-tetrahydro-5H-pyrimido[4,5-b][1,4]diazepin-2-yl)amino)-2-fluoro-5-methoxybenzamide] were “++ (++: <0.5)”, less than 30 nM, less than 50 nM and more than 10000 nM.
Taken in the same sequence, the figures for `COc1cc(C(=O)NC2CCC(N(C)CC3CCN(c4cnc(C5CCC(=O)NC5=O)cc4C)CC3)CC2)ccc1Nc1ncc2c(n1)N(C)CC(F)(F)C(=O)N2C` (stereo not drawn) [Compound 12, 4-((7,7-difluoro-5,9-dimethyl-6-oxo-6,7,8,9-tetrahydro-5H-pyrimido[4,5-b][1,4]diazepin-2-yl)amino)-N-((1r,4r)-4-(((1-(6-(2,6-dioxopiperidin-3-yl)-4-methylpyridin-3-yl)piperidin-4-yl)methyl)(methyl)amino)cyclohexyl)-3-methoxybenzamide] were “+++ (+++: <0.3)”, less than 200 nM, less than 200 nM and more than 10000 nM.
